Results reported in US12358918B2, “Aryl hydrocarbon receptor (AHR) activator compounds as cancer therapeutics” (THE BROAD INSTITUTE, INC., priority 2018, dated 2025).

What was measured:
[1] = tested on: MDA-MB-468 breast cancer cells; test: Western immunoblot of treated cells over 24 hours; assay type: cell-based; settings: FIG. 18
Procedure: Adherent cells were washed once with cold 1×PBS (Corning #01018002) and lysed with RIPA buffer (Sigma #R0278) supplemented by protease and phosphatase inhibitors (Sigma). Protein content was quantified using the DC Protein Assay (BioRad #5000111). Samples were reduced with (loading buffer) and boiled at 95° C. before being resolved by SDS gel electrophoresis on 4-20% Tris/glycine gels (Invitrogen). Proteins were transferred using the IBlot2 (Thermo #IB21001) onto the iBlot™ 2 nitrocellulose Transfer Stacks (Thermo #IB23001). The membranes were then blocked in Odyssey Blocking Buffer (Li-COR #927-40000) for one hour, and then probed overnight with primary antibodies diluted in blocking buffer. The following day, membranes were washed 3×5 mins with 1×TBST and then probed with LiCOR Infrared secondary antibodies for 1 hour at room temperature. Membranes were washed an additional 3×5 mins in 1×TBST and then imaged using the LiCOR Imager. […]

[2] = tested on: MDA-MB-231 breast cancer cell lines; test: cytotoxicity, control cells vs cells overexpressing CYP1A1; assay type: cell-based
Text: The dependence of each compound's cytotoxic effects upon CYP1A1 was also examined, via screening of MDA-MB-231 breast cancer cell lines for cytotoxic response. The CYP1A1-dependence of the cytotoxic response of to each tested compound was specifically determined by comparing the cytotoxicity of each compound administered to control cells with that of the compound administered to corresponding cells that overexpressed CYP1A1. […]

[3] = tested on: MDA-MB-468 and ZR51 breast cancer and JHH7 liver cancer cell lines

Row | SMILES | CYP1A1 expression ([1]; 24 hour time course) | FOXA1 levels ([1]; 24 hour time course) | DNA double stranded breaks (pH2A.X) and PARP cleavage ([1]; within 24 hours) | CYP1A1-dependence of the cytotoxic response [2] | AHR-dependence of the cytotoxic response [3]
1 | COc1cccc2c1C(=O)c1c(O)c3c(c(O)c1C2=O)C[C@@](O)(C(=O)CO)C[C@@H]3O[C@H]1C[C@H](N)[C@H](O)[C@H](C)O1 [doxorubicin] | no detectable induction of CYP1A1 expression | decline in FOXA1 levels | induced DNA double stranded breaks | – | –
2 | COc1ccc(CCCn2ncc3c2nc(N)n2nc(-c4ccco4)nc32)cc1 [SCH 442416, reference compound] | – | – | – | CYP1A1-dependent cytotoxic | dependence upon AHR
3 | Clc1cccc2ncn3nc(-c4ccco4)nc3c12 [10-chloro-2-(2-furyl)[1,2,4]triazolo[1,5-c]quinazoline] | – | – | – | CYP1A1-dependent cytotoxic | dependence upon AHR
4 | Cc1nc2cccc(C(F)(F)F)c2c2nc(-c3ccco3)nn12 [B3] | – | – | – | CYP1A1-dependent cytotoxic | dependence upon AHR
5 | Cc1nc2cnccc2c2nc(-c3ccco3)nn12 [B7] | – | – | – | CYP1A1-dependent cytotoxic | dependence upon AHR
6 | COc1cccc2nc(N)n3nc(-c4ccco4)nc3c12 [A16] | – | – | – | CYP1A1-dependent cytotoxic | dependence upon AHR
7 | CC(C)c1ccc2nc(N)n3nc(-c4ccco4)nc3c2c1 [BRO-025, 2-(furan-2-yl)-9-isopropyl-[1,2,4]triazolo[1,5-c]quinazolin-5-amine] | – | – | – | CYP1A1-dependent cytotoxic | dependence upon AHR
8 | Cc1nc2ccccc2c2nc(-c3ccoc3)nn12 [Z1222312995] | – | – | – | CYP1A1-dependent cytotoxic | dependence upon AHR
9 | Nc1nc2ccc(Br)cc2c2nc(-c3ccco3)nn12 [A14] | – | – | – | CYP1A1-dependent cytotoxic | dependence upon AHR
10 | Nc1nc2cccc(Cl)c2c2nc(-c3ccco3)nn12 [BRO-027, 10-chloro-2-(furan-2-yl)-[1,2,4]triazolo[1,5-c]quinazolin-5-amine] | – | – | – | CYP1A1-dependent cytotoxic | dependence upon AHR
11 | Nc1nc2cccc(C(F)(F)F)c2c2nc(-c3ccco3)nn12 [A2] | – | – | – | CYP1A1-dependent cytotoxic | dependence upon AHR
